Target: T1, Arabidopsis thaliana PIN8 (Arabidopsis thaliana, UniProt Q9LFP6)
T1 sequence (Q9LFP6 1-367): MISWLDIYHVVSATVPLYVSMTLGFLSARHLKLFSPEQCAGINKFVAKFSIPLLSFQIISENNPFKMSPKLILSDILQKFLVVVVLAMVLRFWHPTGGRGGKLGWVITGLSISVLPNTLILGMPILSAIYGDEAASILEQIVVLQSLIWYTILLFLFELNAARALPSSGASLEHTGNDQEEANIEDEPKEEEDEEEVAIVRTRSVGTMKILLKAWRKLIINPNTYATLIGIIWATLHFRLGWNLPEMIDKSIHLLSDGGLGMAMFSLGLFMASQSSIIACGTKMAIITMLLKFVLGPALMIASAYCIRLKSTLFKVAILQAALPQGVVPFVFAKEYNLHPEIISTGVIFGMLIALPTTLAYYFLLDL
Test: SSM electrophysiology peak current response, wild-type PIN8 proteoliposomes
Assay type: biochemical

O=C(O)c1ccccc1C(=O)Nc1cccc2ccccc12 [NPA, 1-N-naphthylphthalamic acid]
effect of NPA on current response to 2,4-D (100 μM 2,4D in absence or presence of 20 µM NPA): inhibited | peak width of SSM current response at various lipid-to-protein ratios (LPR) (LPR10 vs LPR50, variation is consistent with transport): does not change
